Data from patent publication US20090298859A1, “METHOD FOR TREATING PLANTS” (SYNGENTA CROP PROTECTION, INC., priority 2006, published 2009).
Values joined by “and” are separate entries in the source; they are usually repeats but may differ in a detail not shown here. Identical values can stand only once.

Legend:
Assay type in all cases: in vivo
[1] = tested on: Tea plants (Japanese green tea, Yabukita); assay: Polyphenol content of tea leaves after pre-harvest spraying; set-up: Total catechin (g): unit not given here; settings: autumn; for Total catechin (%) when compared to untreated / % compared to untreated (total catechin): untreated = 100%
Procedure: Tea plants (Japanese green tea, Yabukita) were grown in 5 m^2 plots, and the leaves were harvested. The harvested leaves were tested for polyphenols. Fourteen days before harvest, the tea plants were sprayed with a commercial formulation of emamectin benzoate (Affirm™), difenoconazole (Score™), methidathion (Supracid™), azoxystrobin (Amistar™) or a mixture of lufenuron and thiamethoxam. An otherwise identical set of tea plants were left untreated.
The experiment was repeated using either azoxystrobin or trifloxystrobin.
Both trials detailed above were carried out in the autumn. […] It is proposed that, when photosynthesis is active (e.g. in the summer season), addition of azoxystrobin may not enhance photosynthesis further and thus may not be able to further raise catechin levels.

[2] = tested on: Tomato plants (Variety: Sunroad); assay: Lycopene content of harvested tomatoes after azoxystrobin spraying; settings: for lycopene content, single replicate: stored at room temperature, listed as Az-treated; for lycopene content, single replicate / lycopene content, mean of 3 replicates: conventional fungicide treatment plus azoxystrobin
Procedure: Tomato plants (Variety: Sunroad) were grown and the tomatoes were harvested after spraying with a conventional fungicide treatment and with the conventional treatment plus azoxystrobin. The harvested tomatoes were stored at room temperature and tested for lycopene concentration 2, 5, 9 and 12 days after sample harvesting (three tomatoes were chosen at random from each box on each day of testing).
When this study was repeated using similar conditions but on a smaller scale, a marked rise in lycopene content was not observed (control: 11.7 mg lycopene/100 g tomato; azoxystrobin treated: 10.7 mg lycopene/100 g tomato).

Carrot plants = assay: β-carotene content of harvested carrots after azoxystrobin spraying; settings: conventional treatment plus Amistar Opti (azoxystrobin and chlorothalonil)
Procedure: Carrot plants were grown and the carrots were harvested after spraying twice with a conventional fungicide treatment (chlorothalonil, copper hydroxide, iminoctazine polyoxin and tolclofos-methyl) and with the conventional treatment plus Amistar Opti™ (azoxystrobin and chlorothalonil). Some of the harvested carrots were analysed immediately on harvest for β-carotene while others were stored for a week after harvest before analysis. […] It seems therefore that azoxystrobin has a clear effect on β-carotene levels in mature carrots.

soybean = assay: Isoflavone levels in soybean after azoxystrobin treatment
Procedure: (§1) Similar work was carried out to look at isoflavone levels in soybean and anthocyanin levels in eggplant and strawberry on treatment of the plants with azoxystrobin. […] In addition, it also raised anthocyanin levels in strawberry by 50% (control: 200-220 mg anthocyanin/100 g strawberry; azoxystrobin treated: 210-420 mg anthocyanin/100 g strawberry), although it seemed to have no effect on anthocyanin levels in egg plant.

strawberry = assay: Anthocyanin levels in strawberry after azoxystrobin treatment
Procedure: as §1

eggplant = assay: Anthocyanin levels in eggplant after azoxystrobin treatment; settings: egg plant
Procedure: as §1

[3] = Table 1 trial, commercial formulation sprayed 14 days before harvest
[4] = 12 days after sample harvesting

Molecule: CO/C=C(/C(=O)OC)c1ccccc1Oc1cc(Oc2ccccc2C#N)ncn1 [Azoxystrobin, azoxystrobin]
- Epicatechin [1, 3]: 930 mg polyphenol/100 g tea leaves
- Epicatechin gallate [1, 3]: 960 mg polyphenol/100 g tea leaves
- Epigalocatechin [1, 3]: 4800 mg polyphenol/100 g tea leaves
- Epigalocatechin gallate [1, 3]: 6200 mg polyphenol/100 g tea leaves
- Total catechin (%) when compared to untreated ([1]; Table 1 trial): 113%
- Epicatechin ([1]; Table 2 repeat trial): 24.5 mg polyphenol/g tea leaves
- Epicatechin gallate ([1]; Table 2 repeat trial): 31.1 mg polyphenol/g tea leaves
- Epigalocatechin ([1]; Table 2 repeat trial): 178.8 mg polyphenol/g tea leaves
- Epigalocatechin gallate ([1]; Table 2 repeat trial): 160.6 mg polyphenol/g tea leaves
- Total catechin ([1]; Table 2 repeat trial): 395.0 mg polyphenol/g tea leaves
- % compared to untreated (total catechin) ([1]; Table 2 repeat trial): 107%
- lycopene content, single replicate ([2]; 2 days after sample harvesting): 5.69 mg lycopene/100 g tomato and 5.67 mg lycopene/100 g tomato and 5.14 mg lycopene/100 g tomato
- lycopene content, mean of 3 replicates ([2]; 2 days after sample harvesting): 5.50 mg lycopene/100 g tomato
- lycopene content, single replicate ([2]; 5 days after sample harvesting): 8.36 mg lycopene/100 g tomato and 8.87 mg lycopene/100 g tomato and 6.01 mg lycopene/100 g tomato
- lycopene content, mean of 3 replicates ([2]; 5 days after sample harvesting): 7.75 mg lycopene/100 g tomato
- lycopene content, single replicate ([2]; 9 days after sample harvesting): 9.78 mg lycopene/100 g tomato and 9.14 mg lycopene/100 g tomato and 8.32 mg lycopene/100 g tomato
- lycopene content, mean of 3 replicates ([2]; 9 days after sample harvesting): 9.08 mg lycopene/100 g tomato
- lycopene content, single replicate [2, 4]: 8.27 mg lycopene/100 g tomato and 8.88 mg lycopene/100 g tomato and 9.24 mg lycopene/100 g tomato
- lycopene content, mean of 3 replicates [2, 4]: 8.79 mg lycopene/100 g tomato
- lycopene content ([2]; repeat study, similar conditions, smaller scale, control 11.7): 10.7 mg lycopene/100 g tomato
- β-carotene levels compared with conventional fungicide regime (Carrot plants; carrots analysed immediately on harvest, sprayed twice): did not show an increase
- β-carotene content (Carrot plants; carrots stored for one week after harvest, conventional treatment 6.59): 7.48 mg β-carotene/100 g carrot
- isoflavone content (soybean; control 120): 130 mg isoflavone/100 g soybean
- increase of isoflavone levels (soybean; soybean, versus control): 8%
- anthocyanin content (strawberry; control 200-220): 210-420 mg anthocyanin/100 g strawberry
- rise of anthocyanin levels (strawberry; strawberry, versus control): 50%
- effect on anthocyanin levels (eggplant): no effect

Molecule: CC1COC(Cn2cncn2)(c2ccc(Oc3ccc(Cl)cc3)cc2Cl)O1 (stereo not shown) [DFZ, difenoconazole]
- Epicatechin [1, 3]: 950 mg polyphenol/100 g tea leaves
- Epicatechin gallate [1, 3]: 970 mg polyphenol/100 g tea leaves
- Epigalocatechin [1, 3]: 4300 mg polyphenol/100 g tea leaves
- Epigalocatechin gallate [1, 3]: 5900 mg polyphenol/100 g tea leaves
- Total catechin (%) when compared to untreated ([1]; Table 1 trial): 106%

Molecule: COc1nn(CSP(=S)(OC)OC)c(=O)s1 [MTH, methidathion]
- Epicatechin [1, 3]: 1100 mg polyphenol/100 g tea leaves
- Epicatechin gallate [1, 3]: 1100 mg polyphenol/100 g tea leaves
- Epigalocatechin [1, 3]: 4500 mg polyphenol/100 g tea leaves
- Epigalocatechin gallate [1, 3]: 5700 mg polyphenol/100 g tea leaves
- Total catechin (%) when compared to untreated ([1]; Table 1 trial): 109%

Molecule: CON=C(C(=O)OC)c1ccccc1CON=C(C)c1cccc(C(F)(F)F)c1 [Trifloxystrobin, trifloxystrobin]
- Epicatechin ([1]; Table 2 repeat trial): 23.8 mg polyphenol/g tea leaves
- Epicatechin gallate ([1]; Table 2 repeat trial): 32.4 mg polyphenol/g tea leaves
- Epigalocatechin ([1]; Table 2 repeat trial): 190.1 mg polyphenol/g tea leaves
- Epigalocatechin gallate ([1]; Table 2 repeat trial): 163.0 mg polyphenol/g tea leaves
- Total catechin ([1]; Table 2 repeat trial): 409.3 mg polyphenol/g tea leaves
- % compared to untreated (total catechin) ([1]; Table 2 repeat trial): 110%

Molecule: emamectin benzoate
- Epicatechin [1, 3]: 960 mg polyphenol/100 g tea leaves
- Epicatechin gallate [1, 3]: 890 mg polyphenol/100 g tea leaves
- Epigalocatechin [1, 3]: 4600 mg polyphenol/100 g tea leaves
- Epigalocatechin gallate [1, 3]: 5600 mg polyphenol/100 g tea leaves
- Total catechin (g) ([1]; Table 1 trial, sprayed 14 days before harvest, table title: mg polyphenol/100 g tea leaves): 12050
- Total catechin (%) when compared to untreated ([1]; Table 1 trial): 106%
